The values below come from patent US20090018134A1, “Compounds - 945” (AstraZeneca AB, priority 2007, published 2009).

The first assay deals with T1, mTOR (Homo sapiens, UniProt P42345).
T1 construct: FLAG; made in house
T1 sequence (P42345 1362-2549): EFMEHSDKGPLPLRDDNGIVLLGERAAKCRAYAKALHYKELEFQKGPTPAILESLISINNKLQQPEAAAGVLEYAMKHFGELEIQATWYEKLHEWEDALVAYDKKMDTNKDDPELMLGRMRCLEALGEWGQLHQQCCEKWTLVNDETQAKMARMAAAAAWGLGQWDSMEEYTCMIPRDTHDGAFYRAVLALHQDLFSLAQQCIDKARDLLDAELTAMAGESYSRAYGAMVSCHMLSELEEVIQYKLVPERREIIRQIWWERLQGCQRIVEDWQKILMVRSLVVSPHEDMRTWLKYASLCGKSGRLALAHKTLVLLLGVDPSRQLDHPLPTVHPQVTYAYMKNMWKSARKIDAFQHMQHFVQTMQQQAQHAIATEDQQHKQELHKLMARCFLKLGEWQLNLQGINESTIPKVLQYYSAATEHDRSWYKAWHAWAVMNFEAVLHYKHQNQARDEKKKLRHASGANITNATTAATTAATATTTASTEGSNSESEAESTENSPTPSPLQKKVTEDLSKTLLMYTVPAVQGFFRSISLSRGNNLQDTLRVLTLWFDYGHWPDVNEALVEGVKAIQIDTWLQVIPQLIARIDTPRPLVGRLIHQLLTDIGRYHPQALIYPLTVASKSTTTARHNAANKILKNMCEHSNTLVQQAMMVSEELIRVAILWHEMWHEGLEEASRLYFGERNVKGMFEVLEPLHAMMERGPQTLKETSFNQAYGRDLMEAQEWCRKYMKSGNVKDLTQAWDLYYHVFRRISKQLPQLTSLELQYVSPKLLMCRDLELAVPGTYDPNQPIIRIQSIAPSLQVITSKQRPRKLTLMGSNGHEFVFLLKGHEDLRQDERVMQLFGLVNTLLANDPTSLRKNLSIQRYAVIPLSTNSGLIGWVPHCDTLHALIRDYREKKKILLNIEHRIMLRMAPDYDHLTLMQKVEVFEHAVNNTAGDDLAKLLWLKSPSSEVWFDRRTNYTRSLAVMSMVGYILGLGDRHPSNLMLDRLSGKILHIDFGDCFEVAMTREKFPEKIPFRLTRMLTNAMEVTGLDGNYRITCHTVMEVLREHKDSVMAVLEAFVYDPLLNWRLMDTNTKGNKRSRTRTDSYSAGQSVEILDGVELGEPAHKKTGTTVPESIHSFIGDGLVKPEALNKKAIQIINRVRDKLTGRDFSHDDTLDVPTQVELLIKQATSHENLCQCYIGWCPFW
The assay is described as follows: In Vitro mTOR Kinase Assay (Echo), Test (a)(ii). It counts as biochemical. Conditions: read-out: mTOR Kinase Assay (Echo). In outline:
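FLAG-tagged human mTOR truncation (residues 1362-2549) expressed in HEK293 cells and FLAG-purified. Compounds dispensed acoustically, reaction 2 h at room temperature, stopped with EDTA. Phosphorylation of biotinylated peptide detected by AlphaScreen with anti-p70 S6K (T389) antibody overnight; IC50 reported.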
Consider `C[C@H]1COCCN1c1cc(C2(S(=O)(=O)C3CC3)CC2)nc(-c2ccc(NC(=O)Nc3ccn(C)n3)cc2)n1` [Example 3u, 1-[4-[4-(1-cyclopropylsulfonylcyclopropyl)-6-[(3S)-3-methylmorpholin-4-yl]pyrimidin-2-yl]phenyl]-3-(1-methylpyrazol-3-yl)urea], for which the IC50 worked out at 0.604 nM.

For the molecule `CCNC(=O)Nc1ccc(-c2nc(N3CCOC[C@@H]3C)cc(C3(S(=O)(=O)c4ccc(F)cc4)CC3)n2)cc1` [Example 8a, 1-ethyl-3-[4-[4-[1-(4-fluorophenyl)sulfonylcyclopropyl]-6-[(3S)-3-methylmorpholin-4-yl]pyrimidin-2-yl]phenyl]urea], the IC50 came to 0.96 nM. Take `C[C@H]1COCCN1c1cc(C2(S(C)(=O)=O)CC2)nc(-c2ccc(NC(=O)NCC#N)cc2)n1` [Example 2af, 3-(cyanomethyl)-1-[4-[4-[(3S)-3-methylmorpholin-4-yl]-6-(1-methylsulfonylcyclopropyl)pyrimidin-2-yl]phenyl]urea]: the IC50 came to 46.2 nM. For the molecule `CC(C)S(=O)(=O)C1(c2cc(N3CCOC[C@@H]3C)nc(-c3ccc(NC(=O)Nc4ccc(C(F)(F)F)cc4)cc3)n2)CC1` [Example 7k, 1-[4-[4-[(3S)-3-methylmorpholin-4-yl]-6-(1-propan-2-ylsulfonylcyclopropyl)pyrimidin-2-yl]phenyl]-3-[4-(trifluoromethyl)phenyl]urea], the IC50 was found to be 4.82 nM. Still for that read-out and setting: under `C[C@H]1COCCN1c1cc(C2(S(C)(=O)=O)CCCC2)nc(-c2ccc(NC(=O)NCCO)cc2)n1` [Example 4e, 3-(2-hydroxyethyl)-1-[4-[4-[(3S)-3-methylmorpholin-4-yl]-6-(1-methylsulfonylcyclopentyl)pyrimidin-2-yl]phenyl]urea] stands 1.19 nM; under `C[C@H]1COCCN1c1cc(C2(S(=O)(=O)C3CCCC3)CC2)nc(-c2ccc(NC(=O)NC(C)(C)CO)cc2)n1` [Example 9k], 11.5 nM. On the same count and under the same terms, under `CCNC(=O)Nc1ccc(-c2nc(N3CCOC[C@@H]3C)cc(C3(S(C)(=O)=O)CC3)n2)cc1` [Example 1, 3-Ethyl-1-[4-[4-[(3S)-3-methylmorpholin-4-yl]-6-(1-methylsulfonylcyclopropyl)pyrimidin-2-yl]phenyl]urea] stands 2.76 nM; under `C[C@H]1COCCN1c1cc(C2(S(=O)(=O)c3ccccc3C(F)(F)F)CC2)nc(-c2ccc(NC(=O)NC(C)(C)CO)cc2)n1` [Example 10k, 3-(1-hydroxy-2-methyl-propan-2-yl)-1-[4-[4-[(3S)-3-methylmorpholin-4-yl]-6-[1-[2-(trifluoromethyl)phenyl]sulfonylcyclopropyl]pyrimidin-2-yl]phenyl]urea], 50.2 nM; under `CC(C)CNC(=O)Nc1ccc(-c2nc(N3CCOC[C@@H]3C)cc(C3(S(C)(=O)=O)CC3)n2)cc1` [Example 2l, 1-[4-[4-[(3S)-3-methylmorpholin-4-yl]-6-(1-methylsulfonylcyclopropyl)pyrimidin-2-yl]phenyl]-3-(2-methylpropyl)urea], 11.6 nM. As to `C[C@H]1COCCN1c1cc(C2(S(C)(=O)=O)CC2)nc(-c2ccc(NC(=O)NC3(CO)CC3)cc2)n1` [Example 2ab, 3-[1-(hydroxymethyl)cyclopropyl]-1-[4-[4-[(3S)-3-methylmorpholin-4-yl]-6-(1-methylsulfonylcyclopropyl)pyrimidin-2-yl]phenyl]urea], the IC50 was determined as 55.3 nM.

Still in this assay, the particulars now being: table of enzyme assay Test (a)(ii); read-out: Test (a)(ii) IC50.
With `C[C@H]1COCCN1c1cc(C2(S(=O)(=O)c3cc(F)cc(F)c3)CC2)nc(-c2ccc(NC(=O)NC3CCC3)cc2)n1` [Example 19a, 3-cyclobutyl-1-[4-[4-[1-(3,5-difluorophenyl)sulfonylcyclopro-pyl]-6-[(3S)-3-methylmorpholin-4-yl]pyrimidin-2-yl]phenyl]urea], the IC50 worked out at 4.25 nM. Still for that read-out and setting: under `C[C@H]1COCCN1c1cc(C2(S(=O)(=O)CCCO)CC2)nc(-c2ccc(NC(=O)NCc3ncc[nH]3)cc2)n1` [Example 36c, 1-[4-[4-[1-(3-hydroxypropylsulfonyl)cyclopro-pyl]-6-[(3S)-3-methylmorpholin-4-yl]pyrimidin-2-yl]phenyl]-3-(1H-imidazol-2-ylmethyl)urea] stands 114 nM.

For `CCCNC(=O)Nc1ccc(-c2nc(N3CCOC[C@@H]3C)cc(C3(S(=O)(=O)CCCO)CC3)n2)cc1` [Example 31k, 3-[4-[4-[1-(3-hydroxypropylsulfonyl)cyclopropyl]-6-[(3S)-3-methylmorpholin-4-yl]pyrimidin-2-yl]phenyl]-1-propylurea], the IC50 is 1.91 nM. Turning to “1-[4-[4-[1-(2,4-difluorophenyl)sulfonylcyclopro-pyl]-6-[(3S)-3-methylmorpholin-4-yl]pyrimidin-2-yl]phenyl]-3-(2-hydroxyethyl)urea [Example 57b]”, the IC50 came to 4.57 nM. On to `CNC(=O)Nc1ccc(-c2nc(N3CCOC[C@@H]3C)cc(C3(S(=O)(=O)c4cccnc4C(=O)N(C)C)CC3)n2)cc1` [Example 50, N,N-Dimethyl-3-[1-[2-[4-(methylcarbamoylamino)phenyl]-6-[(3S)-3-methylmorpholin-4-yl]pyrimidin-4-yl]cyclopropyl]sulfonylpyridine-2-carboxamide], for which the IC50 is 10.4 nM. Take `C[C@H]1COCCN1c1cc(C2(S(=O)(=O)CCCO)CCC2)nc(-c2ccc(NC(=O)NCCF)cc2)n1` [Example 43n, 3-(2-fluoroethyl)-1-[4-[4-[1-(3-hydroxypropylsulfonyl)cyclobu-tyl]-6-[(3S)-3-methylmorpholin-4-yl]pyrimidin-2-yl]phenyl]urea]: the IC50 was 11.9 nM. As for `C[C@H]1COCCN1c1cc(C2(S(=O)(=O)c3ccc(OC(F)F)cc3)CC2)nc(-c2ccc(NC(=O)NCCO)cc2)n1` [Example 64c, 1-[4-[4-[1-[4-(difluoromethoxy)phenyl]sulfonyl-cyclopropyl]-6-[(3S)-3-methylmorpholin-4-yl]pyrimidin-2-yl]phenyl]-3-(2-hydroxyethyl)urea], the IC50 came to 2.15 nM. For the molecule `CNC(=O)Nc1ccc(-c2nc(N3CCOCC3)cc(C3(S(=O)(=O)C4CC4)CCC3)n2)cc1` [Example 13q, 1-[4-[4-(1-cyclopropylsulfonylcyclobutyl)-6-morpholin-4-ylpyrimidin-2-yl]phenyl]-3-methylurea], the IC50 is 1.92 nM. On the same count and under the same terms, under `C[C@H]1COCCN1c1cc(C2(S(=O)(=O)c3ccccc3)CC2)nc(-c2ccc(NC(=S)NC(C)(C)CO)cc2)n1` [Example 37ag, 1-[4-[4-[1-(benzenesulfonyl)cyclopropyl]-6-[(3S)-3-methylmorpholin-4-yl]pyrimidin-2-yl]phenyl]-3-(1-hydroxy-2-methylpropan-2-yl)thiourea] stands 13.4 nM; under `CCS(=O)(=O)C1(c2cc(N3CCOC[C@@H]3C)nc(-c3ccc(NC(=O)N[C@H](C)CO)cc3)n2)CCC1` [Example 87f, 1-[4-[4-(1-ethylsulfonylcyclobutyl)-6-[(3S)-3-methylmorpholin-4-yl]pyrimidin-2-yl]phenyl]-3-[(2R)-1-hydroxypropan-2-yl]urea], 9.07 nM; under `C[C@H]1COCCN1c1cc(C2(S(=O)(=O)c3ccc(NCCF)c(Cl)c3)CC2)nc(-c2ccc(NC(=O)NCCF)cc2)n1` [Example 95j, 1-[4-[4-[1-[3-chloro-4-(2-fluoroethyl-amino)phenyl]sulfonyl-cyclopropyl]-6-[(3S)-3-methylmorpho-lin-4-yl]pyrimidin-2-yl]phenyl]-3-(2-fluoroethyl)urea], 13.1 nM. For `CNC(=O)Nc1ccc(-c2nc(N3CCOC[C@@H]3C)cc(C3(S(=O)(=O)C4CC4)CCC3)n2)cc1` [Example 36d, 1-[4-[4-(1-cyclopropylsulfonylcyclobutyl)-6-[(3S)-3-methylmorpholin-4-yl]pyrimidin-2-yl]phenyl]-3-methylurea], the IC50 worked out at 3.17 nM. For the molecule `C[C@H]1COCCN1c1cc(C2(S(C)(=O)=O)CCCC2)nc(-c2ccc(NC(=O)NCCO)cc2)n1` [Example 4e, 3-(2-hydroxyethyl)-1-[4-[4-[(3S)-3-methylmorpholin-4-yl]-6-(1-methylsulfonylcyclopentyl)pyrimidin-2-yl]phenyl]urea], the IC50 turned out to be 0.767 nM.

Turning to `C[C@H]1COCCN1c1cc(C2(S(C)(=O)=O)CCC2)nc(-c2ccc(NC(=S)NCCO)cc2)n1` [Example 62, 3-(2-Hydroxyethyl)-1-[4-[4-[(3S)-3-methylmorpholin-4-yl]-6-(1-methylsulfonylcyclobutyl)pyrimidin-2-yl]phenyl]thiourea], the IC50 turned out to be 2.05 nM. `C[C@H]1COCCN1c1cc(C2(S(=O)(=O)c3cccnc3C(=O)N(C)C)CC2)nc(-c2ccc(NC(=O)NC3CC3)cc2)n1` [Example 50a]: the IC50 was found to be 7.94 nM. `CC(=O)NCCS(=O)(=O)C1(c2cc(N3CCOC[C@@H]3C)nc(-c3ccc(NC(=O)NC4CC4)cc3)n2)CC1` [Example 44, N-[2-[1-[2-[4-(Cyclopropylcarbamoylamino)phenyl]-6-[(3S)-3-methylmorpholin-4-yl]pyrimidin-4-yl]cyclopropyl]sulfonylethyl]acetamide]: the IC50 amounted to 23.4 nM. Same read-out and setting: under `CNC(=O)Nc1ccc(-c2nc(N3[C@@H](C)COC[C@@H]3C)cc(C3(S(C)(=O)=O)CC3)n2)cc1` [Example 91a, 1-[4-[4-[(3S,5S)-3,5-dimethylmorpholin-4-yl]-6-(1-methylsulfonylcyclopropyl)pyrimidin-2-yl]phenyl]-3-methylurea] stands 1.98 nM; under `C[C@H]1COCCN1c1cc(C2(S(=O)(=O)CCO)CC2)nc(-c2ccc(NC(=O)Nc3cnn(C)c3)cc2)n1` [Example 16d, 1-[4-[4-[1-(2-hydroxyethylsulfonyl)cyclopropyl]-6-[(3S)-3-methylmorpholin-4-yl]pyrimidin-2-yl]phenyl]-3-(1-methylpyrazol-4-yl)urea], 3.64 nM.

On to `CCNC(=O)Nc1ccc(-c2nc(N3CCOCC3)cc(C3(S(=O)(=O)C4CC4)CC3)n2)cc1` [Example 13b, 1-[4-[4-(1-cyclopropylsulfonylcyclopropyl)-6-morpholin-4-ylpyrimidin-2-yl]phenyl]-3-ethylurea], for which the IC50 was found to be 3.7 nM. With `CC[C@H]1COCCN1c1cc(C2(S(=O)(=O)c3ccccc3)CC2)nc(-c2ccc(NC(=O)N[C@H](C)CO)cc2)n1` [Example 74g, 1-[4-[4-[1-(benzenesulfonyl)cyclopropyl]-6-[(3S)-3-ethylmorpholin-4-yl]pyrimidin-2-yl]phenyl]-3-[(2R)-1-hydroxypropan-2-yl]urea], the IC50 was 4.33 nM.
